Values joined by “and” are separate entries in the source; they are usually repeats but may differ in a detail not shown here. Equal values may be shown once.
Experiments:
M. catarrhalis (−) = test: porfimer sodium aPDT, planktonic culture; type: cell-based, Moraxella catarrhalis
Experimental: (§1) Bacteria were routinely cultured using tryptic soy broth or agar at 37° C. in a 5% CO2 incubator. Bacteria were isolated and suspended with 0.9% NaCl to an Optical Density (OD) of 0.1 taken at 630 nm, to generate the inoculum used for either planktonic or biofilm assays.
Experiments using planktonic cultures were carried out using M. catarrhalis, as a standard for further comparisons and to determine the effective drug concentration, porfimer sodium incubation time and light dose parameters which would provide an effective cell kill at the level of 5-7 logs. Once determined the experiments were repeated for all other bacterial strains examined.
The colony forming units (CFU) per mL of the starting inoculum for every experiment was determined by dilution plating. […]
(§2) Bacteria were exposed to 630 nm laser light via a fiber optic with a lens affixed to the distal end to provide a uniform diverging light field. […] Power output of the laser was measured using a UDT/Gamma Scientific 371 optical power meter and an integrating sphere. […]
(§3) Biofilms were formed on glass coupons in culture dishes containing a bacterial inoculum for 48 hours under conditions specific to the strain. […] Power output of the laser was measured using a UDT/Gamma Scientific 371 optical power meter and an integrating sphere. […]

[1] = tested on: methicillin-resistant Staphylococcus aureus (MRSA), Staphylococcus aureus ATCC BAA 1768; test: partial thickness wound model, microbial load in tissue biopsy (Example 4); type: in vivo, Yorkshire pig; settings: for TISSUE BIOPSY (CFU/mm^2) 24 hr. after treatment 2: individual wounds
Experimental: Bacteria strains were obtained from ATCC (Manassas, VA). Bacteria were propagated from glycerol stock store at −80° C. A stab of the glycerol stock was used to inoculate 5 mL of trypticase soy broth. The cultures were incubated overnight at 37° C. with shaking at 250 rpm. The following day, a portion of overnight culture was used to prepare a streak plate onto an Oxacillin screen plate which was incubated overnight at 37° C. and single colony isolates of freshly plated bacteria were used to prepare bacterial inoculum. The morning of wounding an infection, a portion of overnight culture was used to inoculate 50 mL of trypticase soy broth and the newly inoculated media was incubated at 37° C. with shaking at 250 rpm until log phase growth was reached. The bacteria were pelleted by centrifugation at 4,000 rpm at 4° C. for 10 minutes in a Sorval tabletop centrifuge. The culture supernatant was discarded, and the bacterial pellets were suspended in a volume of sterile PBS to yield a concentration of 2×10^7 CFU/mL.
Tissue samples were obtained using an 8 mm biopsy punch. The biopsy punch was placed into a homogenization tube containing 1 mL of sterile PBS and stainless steel homogenization beads and the tissues were homogenized in a Reich MM300 mixer mill homogenizer. Serial 10-fold dilutions of the tissue homogenates were prepared in sterile PBS and 100 microliters of select dilutions for each wound were plated onto agar plates. The plates were incubated at 35-37° C. and the colonies were enumerated manually. Microbial loads were normalized at CFU/mm^2 of tissue surface area per punch.
This study evaluated the ability of porfimer sodium to reduce/eliminate microbial colonization and biofilm from surgical sites in a partial thickness would healing model. The study was conducted in a single female Yorkshire pig over the course of five days. A dermatome was used to create 20 partial thickness wounds. Sixteen of the wounds were infected with methicillin-resistant Staphylococcus aureus (MRSA), and four were designated as uninfected controls. The wounds were bandaged and the bacterial biofilm allowed to develop for 48 hours.
Designated infected wounds were subjected to two courses of treatment with the test article at a periodicity of 24 hours. […]
Treatments consisted of application of the test article followed by photoactivation with one or two intensities of light, 150 J/cm^2 or 200 J/cm^2 (Table 3). Wounds were evaluated for microbial load prior to each course of treatment, immediately following the final treatment and 24 hours following the final treatment. […]

P. anaerobius (+) = test: porfimer sodium aPDT, 48 hour biofilm culture; type: cell-based, Peptostreptococcus anaerobius; settings: 630 nm, kill at 100 J/cm2 (light dose 75-100 J/cm2), porfimer sodium 250 μg/mL
Experimental: as §1
The colony forming units (CFU) per mL of the starting inoculum for every experiment was determined by dilution plating. Control samples were exposed to laser at 630 nm in the absence of porfimer sodium, porfimer sodium in the absence of laser exposure, or in saline alone in the absence of porfimer sodium and 630 nm laser light. All experimental samples were dilution plated to enumerate viable CFU's. Three independent replicates were performed for each reaction condition per strain per assay. […]
as §2, §3

[2] = type: in vivo, Yorkshire pigs; settings: abraded wounds, Example 3
Excerpt: This study evaluated the antimicrobial activity and local safety of porfimer sodium when applied to abraded wounds in Yorkshire pigs.
On Day −2 of the study, pigs were anesthetized and the skin aseptically prepared. Superficial wounds were created using the tape strip method until punctate bleeding was observed. Also on Day −2, eight wounds per pig were inoculated with one of three bacterial cultures (Haemophilus influenza, Moraxella catarrhalis, or Staphylococcus aureus) at a concentration of 10^7-10^8 CFUs per mL. There were two control sites on each side. […] The wounds were covered, analgesia in the form of buprenorphine (IM, 0.03 mg/kg) was provided, and the animals were recovered from anesthesia.

porfimer sodium
bacterial cell kill (M. catarrhalis (−); 125 μg/ml, incubated 10 minutes, light doses 50-100 J/cm^2): 6-7 logs
Rate of kill (M. catarrhalis (−); 630 nm, 200 J/cm2, porfimer sodium 125 μg/mL): 7Log
Mean microbial load, Tissue ([1]; Group 3 (150 J/cm^2), N 6): 8.13E+03 CFU/mm^2
TISSUE BIOPSY (CFU/mm^2) 24 hr. after treatment 2 ([1]; Group 3 = 150 J/cm2 treatment): 4.28E+03 CFU/mm^2 and 1.57E+04 CFU/mm^2 and 2.78E+03 CFU/mm^2 and 4.73E+03 CFU/mm^2 and 1.05E+04 CFU/mm^2
Mean microbial load, Tissue ([1]; Group 4 (200 J/cm^2), N 3, without wounds L6, R5, R9): 2.64E+03 CFU/mm^2
TISSUE BIOPSY (CFU/mm^2) 24 hr. after treatment 2 ([1]; Group 4 = 200 J/cm2 treatment): 6.27E+03 CFU/mm^2 and 5.47E+02 CFU/mm^2 and 1.11E+03 CFU/mm^2 and 8.35E+03 CFU/mm^2 and 3.36E+03 CFU/mm^2
Rate of kill (P. anaerobius (+)): >6Log
histopathological observations, treated sites vs control sites [2]: no significant difference between treated sites and control sites

Reference: US12090204B2, “Photodynamic therapy compositions and methods of use thereof” (Pinnacle Biologics, Inc., priority 2020, dated 2024)
